In patent publication US20260053812A1, “METHODS OF TREATING HYPERTENSION WITH A COMBINATION OF AN ALDOSTERONE SYNTHASE INHIBITOR AND A DIURETIC” (Mineralys Therapeutics, Inc., priority 2022, published 2026):
“And” between values parts separate entries of the source, which are not always exact repeats. Equal entries are not always repeated.

Assay: Adverse events (TEAEs, SAEs, AESI; Safety Analysis Set)
[1] = Table 43, Part 1, 100 mg QD (N = 31)

Source text: In analyses performed on the Safety Analysis Set, subjects will be analyzed according to their actual treatment received.

Q: Which “TEAE leading to permanent discontinuation from study drug, Vascular disorders, %” value (Part 1, Active (N = 133)) does the source give for `CC(=O)N[C@H]1CC[C@H](NC(=O)CN2CCN(c3nncc(-c4ccc(C)cc4)n3)CC2)CC1` [Compound A HBr] here?
A: (2.3) %

Q: What about the “Subjects with TEAEs considered at least possibly related to study drug” value (Part 1, active drug, listed as lorundrostat) of the same molecule?
A: 27 (20.3%) subjects (%)

Q: And the “AE requiring dose titration: Hyperkalemia” value (Part 1 All active, N 159)?
A: 6 (3.8%)

Q: And the “AE requiring dose titration: Hyponatremia” value (Part 1 All active, N 159)?
A: 0

Q: And the “AE requiring dose titration: Other possibly related” value (Part 1 All active, N 159)?
A: 0

Q: What about the “AE requiring dose titration: Other unrelated” value (Part 1 All active, N 159) of the same molecule?
A: 1 (0.6%)

Q: What about the “AE requiring study drug discontinuation: Hyperkalemia” value (Part 1 All active, N 159) of the same molecule?
A: 6 (3.8%)

Q: What about the “AE requiring study drug discontinuation: Hyponatremia” value (Part 1 All active, N 159) of the same molecule?
A: 0

Q: What about the “AE requiring study drug discontinuation: Hypotension” value (Part 1 All active, N 159) of the same molecule?
A: 2 (1.2%)

Q: And the “AE requiring study drug discontinuation: Other possibly related” value (Part 1 All active, N 159)?
A: 1 (0.6%)

Q: And the “AE requiring study drug discontinuation: Other unrelated” value (Part 1 All active, N 159)?
A: 11 (6.9%)

Q: What about the Deaths (Part 1 or Part 2) of the same molecule?
A: No deaths

Q: And the “Subjects with TEAE resulting in dose modification” value (Part 2)?
A: 7 subjects

Q: And the Muscle spasms (Part 2 100 mg QD cohort)?
A: 3 (9.7%) subjects (%)

Q: What about the “Subjects with ≥1 moderate on-treatment TEAE” value (Part 2 100 mg QD cohort) of the same molecule?
A: 12 (38.7%) subjects (%)

Q: And the “AE requiring dose titration: Hyperkalemia” value (Part 2 100 mg QD, N 31)?
A: 1 (3.2%)

Q: And the “AE requiring dose titration: Hyponatremia” value (Part 2 100 mg QD, N 31)?
A: 1 (3.2%)

Q: What about the “AE requiring dose titration: Other possibly related” value (Part 2 100 mg QD, N 31) of the same molecule?
A: 0

Q: What about the “AE requiring dose titration: Other unrelated” value (Part 2 100 mg QD, N 31) of the same molecule?
A: 0

Q: What about the “AE requiring study drug discontinuation: Hyperkalemia” value (Part 2 100 mg QD, N 31) of the same molecule?
A: 0

Q: What about the “AE requiring study drug discontinuation: Hyponatremia” value (Part 2 100 mg QD, N 31) of the same molecule?
A: 1 (3.4%)

Q: What about the “AE requiring study drug discontinuation: Hypotension” value (Part 2 100 mg QD, N 31) of the same molecule?
A: 1 (2.8%)

Q: What about the “AE requiring study drug discontinuation: Other possibly related” value (Part 2 100 mg QD, N 31) of the same molecule?
A: 0

Q: What about the “AE requiring study drug discontinuation: Other unrelated” value (Part 2 100 mg QD, N 31) of the same molecule?
A: 1 (2.8%)

Q: And the “Subjects with any On-treatment TEAEs leading to withdrawal from study drug, %” value (Part 2, 100 mg QD (N = 31))?
A: 6.5%

Q: What about the “TEAE leading to permanent withdrawal from study drug, Glomerular filtration rate decreased, %” value (Part 2, 100 mg QD (N = 31)) of the same molecule?
A: 3.2%

Q: What about the “TEAE leading to permanent withdrawal from study drug, Hyponatraemia, %” value (Part 2, 100 mg QD (N = 31)) of the same molecule?
A: 3.2%

Q: What about the “TEAE leading to permanent withdrawal from study drug, Investigations, %” value (Part 2, 100 mg QD (N = 31)) of the same molecule?
A: 3.2%

Q: And the “TEAE leading to permanent withdrawal from study drug, Metabolism and nutrition disorders, %” value (Part 2, 100 mg QD (N = 31))?
A: 3.2%

Q: What about the “TEAE leading to permanent withdrawal from study drug, Muscle spasms, %” value (Part 2, 100 mg QD (N = 31)) of the same molecule?
A: 3.2%

Q: What about the “TEAE leading to permanent withdrawal from study drug, Musculoskeletal and connective tissue disorders, %” value (Part 2, 100 mg QD (N = 31)) of the same molecule?
A: 3.2%

Q: What about the “Subjects with TEAEs considered at least possibly related to study drug” value (Part 2, lorundrostat) of the same molecule?
A: 9 subjects (%) and 9 (29.0%) subjects (%)

Q: And the “On-treatment TEAE, Chronic kidney disease, %” value [1]?
A: (6.5) %

Q: And the “On-treatment TEAE, Chronic kidney disease, Mild, %” value [1]?
A: (6.5) %

Q: And the “On-treatment TEAE, Diarrhoea, %” value [1]?
A: (6.5) %

Q: And the “On-treatment TEAE, Diarrhoea, Mild, %” value [1]?
A: (6.5) %

Q: And the “On-treatment TEAE, Dizziness, %” value [1]?
A: (6.5) %

Q: What about the “On-treatment TEAE, Dizziness, Mild, %” value [1] of the same molecule?
A: (6.5) %

Q: And the “On-treatment TEAE, Gastrointestinal disorders, %” value [1]?
A: (16.1) %

Q: What about the “On-treatment TEAE, Gastrointestinal disorders, Mild, %” value [1] of the same molecule?
A: (9.7) %

Q: What about the “On-treatment TEAE, Gastrointestinal disorders, Moderate, %” value [1] of the same molecule?
A: (6.5) %

Q: What about the “On-treatment TEAE, Hyperkalaemia, %” value [1] of the same molecule?
A: (25.8) %

Q: And the “On-treatment TEAE, Hyperkalaemia, Mild, %” value [1]?
A: (9.7) %

Q: What about the “On-treatment TEAE, Hyperkalaemia, Moderate, %” value [1] of the same molecule?
A: (16.1) %

Q: What about the “On-treatment TEAE, Hyponatraemia, %” value [1] of the same molecule?
A: (6.5) %

Q: What about the “On-treatment TEAE, Infections and infestations, %” value [1] of the same molecule?
A: (16.1) %

Q: What about the “On-treatment TEAE, Infections and infestations, Mild, %” value [1] of the same molecule?
A: (6.5) %

Q: And the “On-treatment TEAE, Infections and infestations, Moderate, %” value [1]?
A: (9.7) %

Q: What about the “On-treatment TEAE, Investigations, %” value [1] of the same molecule?
A: (6.5) %

Q: What about the “On-treatment TEAE, Metabolism and nutrition disorders, %” value [1] of the same molecule?
A: (32.3) %

Q: And the “On-treatment TEAE, Metabolism and nutrition disorders, Mild, %” value [1]?
A: (6.5) %

Q: What about the “On-treatment TEAE, Metabolism and nutrition disorders, Moderate, %” value [1] of the same molecule?
A: (22.6) %

Q: And the “On-treatment TEAE, Muscle spasms, %” value [1]?
A: (9.7) %

Q: And the “On-treatment TEAE, Muscle spasms, Moderate, %” value [1]?
A: (6.5) %

Q: What about the “On-treatment TEAE, Musculoskeletal and connective tissue disorders, %” value [1] of the same molecule?
A: (16.1) %

Q: And the “On-treatment TEAE, Musculoskeletal and connective tissue disorders, Mild, %” value [1]?
A: (6.5) %

Q: And the “On-treatment TEAE, Musculoskeletal and connective tissue disorders, Moderate, %” value [1]?
A: (9.7) %

Q: What about the “On-treatment TEAE, Nausea, %” value [1] of the same molecule?
A: (6.5) %

Q: And the “On-treatment TEAE, Nausea, Mild, %” value [1]?
A: (6.5) %

Q: What about the “On-treatment TEAE, Nervous system disorders, %” value [1] of the same molecule?
A: (6.5) %

Q: And the “On-treatment TEAE, Nervous system disorders, Mild, %” value [1]?
A: (6.5) %

Q: And the “On-treatment TEAE, Renal and urinary disorders, %” value [1]?
A: (6.5) %

Q: What about the “On-treatment TEAE, Renal and urinary disorders, Mild, %” value [1] of the same molecule?
A: (6.5) %

Q: And the “On-treatment TEAE, Urinary tract infection, %” value [1]?
A: (6.5) %

Q: And the “Subjects with any On-treatment TEAEs, Mild, %” value [1]?
A: (19.4) %

Q: And the “Subjects with any On-treatment TEAEs, Moderate, %” value [1]?
A: (38.7) %

Q: What about the “Subjects with any On-treatment TEAEs, Severe, %” value [1] of the same molecule?
A: (3.2) %

Q: What about the “AE requiring dose titration: Hyperkalemia” value (Total active, N 190) of the same molecule?
A: 7 (4.1%)

Q: And the “AE requiring dose titration: Hyponatremia” value (Total active, N 190)?
A: 1 (0.5%)

Q: And the “AE requiring dose titration: Other possibly related” value (Total active, N 190)?
A: 0

Q: What about the “AE requiring dose titration: Other unrelated” value (Total active, N 190) of the same molecule?
A: 1 (0.5%)

Q: And the “AE requiring study drug discontinuation: Hyperkalemia” value (Total active, N 190)?
A: 6 (3.2%)

Q: And the “AE requiring study drug discontinuation: Hyponatremia” value (Total active, N 190)?
A: 1 (0.5%)

Q: And the “AE requiring study drug discontinuation: Hypotension” value (Total active, N 190)?
A: 3 (1.6%)

Q: What about the “AE requiring study drug discontinuation: Other possibly related” value (Total active, N 190) of the same molecule?
A: 1 (0.5%)

Q: And the “AE requiring study drug discontinuation: Other unrelated” value (Total active, N 190)?
A: 12 (6.3%)

Q: And the “Subjects who developed orthostatic hypotension” value (fall of 20 mmHg in SBP or 10 mmHg in DBP sitting to standing)?
A: three

Q: What about the “Subjects with hypotension related to treatment” value (two in 100 mg QD cohorts (Part 1, Part 2), one 12.5 mg BID, reversible with treatment cessation) of the same molecule?
A: three

Q: And the “Overall safety and tolerability” value (whole study)?
A: safe and well tolerated
